Patent publication US20250325562A1, “Intravenous Ganaxolone Formulations and Methods of Use in Treating Status Epilepticus and Other Seizure Disorders” (MARINUS PHARMACEUTICALS, INC., priority 2015, published 2025)
Read-outs that look alike come from different tables or passages of the source.

How the values were obtained:
[1] = in vivo; cited from earlier work
[2] = Ganaxolone concentration reached in 30% Captisol solutions (with additives or dry mixing), HPLC; assay type: physicochemical
Experimental: 500 μl of 10% aqueous Polysorbate 80 solution in a 20 ml scintillation vial were combined with powdered ganaxolone (50 mg). The mixture was stirred to wet the ganaxolone. Solid Captisol (3.2 g), sufficient to form a 30% Captisol solution, was then added to the vial and the vial contents were mixed. Deionized water (8.0 g) was then added and the mixture was vigorously stirred at room temperature overnight to obtain a hazy solution. An aliquot was filtered through 0.2 μm syringe filter and ganaxolone concentration was assayed by HPLC to be 4.28 mg/ml.
Ganaxolone was vigorously stirred in 30% Captisol in the presence of 10% v/v ethanol overnight to obtain a 3.16 mg/ml ganaxolone solution. • (b) Ganaxolone-30% Captisol solution containing glycerin
Ganaxolone was vigorously stirred in 30% Captisol in the presence of 10% v/v glycerin overnight to obtain a 3.45 mg/ml ganaxolone solution. • (c) Ganaxolone-30% Captisol solution containing propylene glycol
Ganaxolone was vigorously stirred in 30% Captisol in the presence of 10% v/v propylene glycol overnight to obtain a 2.53 mg/ml ganaxolone solution.
Powdered ganaxolone (125 mg) was charged into 100 ml beaker. Captisol powder (7.9 g) was then added to the beaker. The mixture was mixed by stirring with a magnetic stir bar for 5 min. Deionized water (20.1 g) was weighed into a plastic cup. About half of the water was added into the beaker and the contents were vigorously stirred for 30 minutes to obtain a homogeneous mixture. The remaining water was added and the beaker was covered with paraffin film.

[3] = Phase solubility of ganaxolone in aqueous CAPTISOL solutions, HPLC; assay type: physicochemical; conditions: for Ganaxolone conc. by HPLC: 42 hours equilibrium
Experimental: Ganaxolone solubility in aqueous CAPTISOL solution was first determined by constructing a phase solubility diagram. Excess ganaxolone was shaken in aqueous CAPTISOL solutions of known concentrations for 42 hours to reach equilibrium. The ganaxolone solution was filtered into HPLC vials through 0.45 μm syringe filters. The filtrates were assayed for ganaxolone concentration by HPLC. Moles of ganaxolone in solution against moles of CAPTISOL added were plotted.

[4] = cited from earlier work

SMILES: CC(=O)[C@H]1CC[C@H]2[C@@H]3CC[C@H]4C[C@H](O)CC[C@]4(C)[C@H]3CC[C@]12C [Allopregnanolone]
- half-life [1]: very short

SMILES: CC(=O)[C@H]1CC[C@H]2[C@@H]3CC[C@H]4C[C@](C)(O)CC[C@]4(C)[C@H]3CC[C@]12C [Ganaxolone, 3α-hydroxy, 3β-methyl-5α-pregnan-20-one]
- ganaxolone concentration by HPLC ([2]; 30% Captisol with Polysorbate 80, stirred overnight at room temperature, 0.2 μm filtered): 4.28 mg/mL
- ganaxolone concentration of solution ([2]; 30% Captisol, 10% v/v ethanol, stirred overnight): 3.16 mg/mL
- ganaxolone concentration of solution ([2]; 30% Captisol, 10% v/v glycerin, stirred overnight): 3.45 mg/mL
- ganaxolone concentration of solution ([2]; 30% Captisol, 10% v/v propylene glycol, stirred overnight): 2.53 mg/mL
- ganaxolone concentration after prolonged stirring ([2]; 30% Captisol, dry mixing, after 90 hours of stirring): unchanged
- ganaxolone concentration of solution ([2]; 30% Captisol, prior dry mixing of ganaxolone and Captisol, stirred overnight at room temperature): 4.61 mg/mL
- Ganaxolone conc. ([3]; CAPTISOL 0 mg/mL): 0 mM
- Ganaxolone conc. by HPLC ([3]; CAPTISOL 0 mg/mL): Not detectable
- Ganaxolone conc. ([3]; CAPTISOL 25 mg/mL (0.0116 M)): 1.3 mM
- Ganaxolone conc. by HPLC ([3]; CAPTISOL 25 mg/mL (0.0116 M)): 0.43 mg/mL
- Ganaxolone conc. ([3]; CAPTISOL 50 mg/mL (0.0231 M)): 2.7 mM
- Ganaxolone conc. by HPLC ([3]; CAPTISOL 50 mg/mL (0.0231 M)): 0.88 mg/mL
- Ganaxolone conc. ([3]; CAPTISOL 100 mg/mL (0.0462 M)): 5.6 mM
- Ganaxolone conc. by HPLC ([3]; CAPTISOL 100 mg/mL (0.0462 M)): 1.86 mg/mL
- Ganaxolone conc. ([3]; CAPTISOL 200 mg/mL (0.0925 M)): 10.9 mM
- Ganaxolone conc. by HPLC ([3]; CAPTISOL 200 mg/mL (0.0925 M)): 3.63 mg/mL
- Ganaxolone conc. ([3]; CAPTISOL 400 mg/mL (0.185 M)): 23.1 mM
- Ganaxolone conc. by HPLC ([3]; CAPTISOL 400 mg/mL (0.185 M)): 7.68 mg/mL
- half-life ([4]; human plasma following oral administration): approximately 20 hours
- Tmax ([4]; therapeutic blood levels are reached quickly): short
